Key:
Malme-3M = assay: Antiproliferative activity against human Malme-3M cells assessed as inhibition of cell viability incubated for 3 to 5 days by Celltiter-Glo luminescent assay; type: functional, cell-based
[1] = Anti-tumor activity against human LuCaP-77 CR cell xenografted in SCID mouse assessed as tumor growth inhibition administered for 21 days relative to control; type: functional; conditions: time 21 day
Ramos = assay: Antiproliferative activity against human Ramos cells assessed as inhibition of cell viability incubated for 3 to 5 days by Celltiter-Glo luminescent assay; type: functional, cell-based
in vivo = conditions: CB17 SCID, mouse, brain/plasma, po, 500 mg/kg
Description: Ratio of drug concentration in brain to plasma in CB17 SCID mouse xenografted with LuCaP-77 CR cell at 500 mg/kg, po measured after 24 hrs

[2] = molecular target: Serine/threonine-protein kinase TBK1 (Homo sapiens, UniProt Q9UHD2); assay: Inhibition of TBK1 (unknown origin)
Sequence of Serine/threonine-protein kinase TBK1 (Q9UHD2 whole entry): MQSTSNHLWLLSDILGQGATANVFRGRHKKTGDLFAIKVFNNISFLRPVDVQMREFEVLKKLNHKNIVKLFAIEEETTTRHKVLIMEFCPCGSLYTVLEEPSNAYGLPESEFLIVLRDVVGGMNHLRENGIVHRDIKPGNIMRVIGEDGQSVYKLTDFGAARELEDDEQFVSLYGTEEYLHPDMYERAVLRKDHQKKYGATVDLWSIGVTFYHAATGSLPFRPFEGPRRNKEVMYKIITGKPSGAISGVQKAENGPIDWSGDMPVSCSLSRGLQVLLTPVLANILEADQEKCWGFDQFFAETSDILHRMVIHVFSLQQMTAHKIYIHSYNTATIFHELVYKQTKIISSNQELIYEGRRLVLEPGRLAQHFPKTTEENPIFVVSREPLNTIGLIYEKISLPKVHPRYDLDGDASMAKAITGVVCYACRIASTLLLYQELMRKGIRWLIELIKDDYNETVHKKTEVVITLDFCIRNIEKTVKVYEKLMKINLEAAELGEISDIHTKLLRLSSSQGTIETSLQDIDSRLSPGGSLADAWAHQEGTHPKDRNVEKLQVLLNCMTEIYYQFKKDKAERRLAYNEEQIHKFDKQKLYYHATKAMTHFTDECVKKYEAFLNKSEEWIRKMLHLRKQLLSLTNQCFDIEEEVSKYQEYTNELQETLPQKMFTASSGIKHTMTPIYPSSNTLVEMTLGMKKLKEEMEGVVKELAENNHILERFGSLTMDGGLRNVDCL

SK-MEL-2 = assay: Antiproliferative activity against human SK-MEL-2 cells assessed as inhibition of cell viability incubated for 3 to 5 days by Celltiter-Glo luminescent assay; type: functional, cell-based
RL = assay: Antiproliferative activity against human RL cells assessed as inhibition of cell viability incubated for 3 to 5 days by Celltiter-Glo luminescent assay; type: functional, cell-based
DB = assay: Antiproliferative activity against human DB cells assessed as inhibition of cell viability incubated for 3 to 5 days by Celltiter-Glo luminescent assay; type: functional, cell-based
NCI-H1930 = assay: Antiproliferative activity against human NCI-H1930 cells assessed as inhibition of cell viability incubated for 3 to 5 days by Celltiter-Glo luminescent assay; type: functional, cell-based
COR-L47 = assay: Antiproliferative activity against human COR-L47 cells assessed as inhibition of cell viability incubated for 3 to 5 days by Celltiter-Glo luminescent assay; type: functional, cell-based
SU-DHL-6 = assay: Antiproliferative activity against human SU-DHL-6 cells assessed as inhibition of cell viability incubated for 3 to 5 days by Celltiter-Glo luminescent assay; type: functional, cell-based
[3] = molecular target: Serine/threonine-protein kinase D3 (Homo sapiens, UniProt O94806); assay: Inhibition of PRKCN (unknown origin)
Sequence of Serine/threonine-protein kinase D3 (O94806 whole entry): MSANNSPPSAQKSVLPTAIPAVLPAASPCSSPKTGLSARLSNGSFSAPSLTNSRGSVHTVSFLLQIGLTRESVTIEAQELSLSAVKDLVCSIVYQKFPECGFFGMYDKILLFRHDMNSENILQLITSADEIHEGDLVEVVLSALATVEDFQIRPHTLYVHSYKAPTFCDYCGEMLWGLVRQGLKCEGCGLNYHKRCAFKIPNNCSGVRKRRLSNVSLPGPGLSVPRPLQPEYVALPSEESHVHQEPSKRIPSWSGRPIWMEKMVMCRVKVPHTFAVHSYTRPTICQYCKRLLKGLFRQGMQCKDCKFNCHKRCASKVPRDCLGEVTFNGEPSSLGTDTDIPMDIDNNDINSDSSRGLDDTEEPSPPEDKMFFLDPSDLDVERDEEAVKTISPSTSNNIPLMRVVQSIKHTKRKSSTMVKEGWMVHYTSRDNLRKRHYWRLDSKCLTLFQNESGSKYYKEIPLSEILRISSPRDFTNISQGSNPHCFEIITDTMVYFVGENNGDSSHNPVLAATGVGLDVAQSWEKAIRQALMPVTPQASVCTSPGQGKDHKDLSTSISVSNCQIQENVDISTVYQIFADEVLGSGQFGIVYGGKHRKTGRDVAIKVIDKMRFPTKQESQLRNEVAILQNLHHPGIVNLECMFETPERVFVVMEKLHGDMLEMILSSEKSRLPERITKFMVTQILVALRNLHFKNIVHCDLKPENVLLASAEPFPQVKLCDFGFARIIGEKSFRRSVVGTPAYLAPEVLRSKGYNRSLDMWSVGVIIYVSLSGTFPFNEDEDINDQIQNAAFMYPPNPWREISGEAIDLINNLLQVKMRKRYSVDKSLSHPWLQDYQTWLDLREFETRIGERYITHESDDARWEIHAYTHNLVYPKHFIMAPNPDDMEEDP

NCI-H1693 = assay: Antiproliferative activity against human NCI-H1693 cells assessed as inhibition of cell viability incubated for 3 to 5 days by Celltiter-Glo luminescent assay; type: functional, cell-based
G-361 = assay: Antiproliferative activity against human G361 cells assessed as inhibition of cell viability incubated for 3 to 5 days by Celltiter-Glo luminescent assay; type: functional, cell-based
[4] = molecular target: Vascular endothelial growth factor receptor 1 (Homo sapiens, UniProt P17948); assay: Inhibition of Flt1 (unknown origin)
[5] = molecular target: Histone acetyltransferase p300 (Homo sapiens, UniProt Q09472)
[6] = molecular target: Calcium/calmodulin-dependent protein kinase type II subunit alpha (Homo sapiens, UniProt Q9UQM7); assay: Inhibition of CAMK2A (unknown origin)
Sequence of Calcium/calmodulin-dependent protein kinase type II subunit alpha (Q9UQM7 whole entry): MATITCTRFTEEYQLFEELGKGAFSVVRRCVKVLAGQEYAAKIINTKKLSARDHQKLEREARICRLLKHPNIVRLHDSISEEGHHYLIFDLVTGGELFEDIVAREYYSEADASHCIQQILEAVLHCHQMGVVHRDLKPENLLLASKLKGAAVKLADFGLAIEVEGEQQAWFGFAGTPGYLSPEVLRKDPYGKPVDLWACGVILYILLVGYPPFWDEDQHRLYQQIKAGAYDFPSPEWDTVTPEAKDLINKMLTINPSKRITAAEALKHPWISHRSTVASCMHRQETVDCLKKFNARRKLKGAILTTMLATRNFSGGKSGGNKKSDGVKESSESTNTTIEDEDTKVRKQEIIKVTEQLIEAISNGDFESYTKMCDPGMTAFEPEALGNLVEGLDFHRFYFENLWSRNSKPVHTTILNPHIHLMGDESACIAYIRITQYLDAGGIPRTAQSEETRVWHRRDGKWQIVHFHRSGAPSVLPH

[7] = Cmax in CB17 SCID mouse xenografted with LuCaP-77 CR cell at 200 mg/kg, ip administered for 7 days; type: ADME, organism-based; conditions: in vivo, time 7 day
OPM-2 = assay: Antiproliferative activity against human OPM-2 cells assessed as inhibition of cell viability incubated for 3 to 5 days by Celltiter-Glo luminescent assay; type: functional, cell-based
[8] = molecular target: Tyrosine-protein kinase Fyn (Homo sapiens, UniProt P06241); assay: Inhibition of Fyn (unknown origin)
Sequence of Tyrosine-protein kinase Fyn (P06241 whole entry): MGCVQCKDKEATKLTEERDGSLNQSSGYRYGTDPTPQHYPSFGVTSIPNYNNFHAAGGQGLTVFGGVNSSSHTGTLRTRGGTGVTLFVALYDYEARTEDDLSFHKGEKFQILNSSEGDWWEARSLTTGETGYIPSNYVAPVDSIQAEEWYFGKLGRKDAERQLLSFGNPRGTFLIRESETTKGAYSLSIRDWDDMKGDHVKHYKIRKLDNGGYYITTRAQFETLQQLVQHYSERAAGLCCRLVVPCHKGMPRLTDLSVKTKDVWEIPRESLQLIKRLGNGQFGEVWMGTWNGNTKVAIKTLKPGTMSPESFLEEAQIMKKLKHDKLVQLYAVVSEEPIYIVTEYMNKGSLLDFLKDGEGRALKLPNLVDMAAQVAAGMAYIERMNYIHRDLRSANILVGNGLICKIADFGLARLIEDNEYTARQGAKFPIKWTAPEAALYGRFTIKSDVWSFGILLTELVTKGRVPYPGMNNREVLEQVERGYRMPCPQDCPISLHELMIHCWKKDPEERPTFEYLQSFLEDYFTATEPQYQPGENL

MDA-MB-436 = assay: Antiproliferative activity against human MDA-MB-436 cells assessed as inhibition of cell viability incubated for 3 to 5 days by Celltiter-Glo luminescent assay; type: functional, cell-based
Aurora kinase B = Aurora kinase B (Homo sapiens, UniProt Q96GD4); assay: Inhibition of Aurora1 (unknown origin)
Sequence of Aurora kinase B (Q96GD4 whole entry): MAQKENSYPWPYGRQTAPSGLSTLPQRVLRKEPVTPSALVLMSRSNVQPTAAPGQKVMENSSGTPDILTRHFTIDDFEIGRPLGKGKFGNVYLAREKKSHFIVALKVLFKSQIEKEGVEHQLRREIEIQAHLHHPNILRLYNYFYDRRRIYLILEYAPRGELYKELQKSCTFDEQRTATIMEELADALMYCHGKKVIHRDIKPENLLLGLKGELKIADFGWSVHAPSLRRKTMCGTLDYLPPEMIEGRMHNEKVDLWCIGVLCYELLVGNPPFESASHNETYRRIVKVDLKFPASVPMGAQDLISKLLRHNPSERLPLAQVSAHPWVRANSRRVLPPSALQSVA

NCI-H838 = assay: Antiproliferative activity against human NCI-H838 cells assessed as inhibition of cell viability incubated for 3 to 5 days by Celltiter-Glo luminescent assay; type: functional, cell-based
NCI-H596 = assay: Antiproliferative activity against human NCI-H596 cells assessed as inhibition of cell viability incubated for 3 to 5 days by Celltiter-Glo luminescent assay; type: functional, cell-based
RCK8 = assay: Antiproliferative activity against human RCK8 cells assessed as inhibition of cell viability incubated for 3 to 5 days by Celltiter-Glo luminescent assay; type: functional, cell-based
MDA-MB-468 = assay: Antiproliferative activity against human MDA-MB-468 cells assessed as inhibition of cell viability incubated for 3 to 5 days by Celltiter-Glo luminescent assay; type: functional, cell-based
[9] = molecular target: Tyrosine-protein kinase JAK2 (Homo sapiens, UniProt O60674); assay: Inhibition of JAK2 (unknown origin)
HCC70 = assay: Antiproliferative activity against human HCC70 cells assessed as inhibition of cell viability incubated for 3 to 5 days by Celltiter-Glo luminescent assay; type: functional, cell-based
GA-10 = assay: Antiproliferative activity against human GA-10 cells assessed as inhibition of cell viability incubated for 3 to 5 days by Celltiter-Glo luminescent assay; type: functional, cell-based
[10] = molecular target: Protein kinase C theta type (Homo sapiens, UniProt Q04759); assay: Inhibition of PKCtheta (unknown origin)
Sequence of Protein kinase C theta type (Q04759 whole entry): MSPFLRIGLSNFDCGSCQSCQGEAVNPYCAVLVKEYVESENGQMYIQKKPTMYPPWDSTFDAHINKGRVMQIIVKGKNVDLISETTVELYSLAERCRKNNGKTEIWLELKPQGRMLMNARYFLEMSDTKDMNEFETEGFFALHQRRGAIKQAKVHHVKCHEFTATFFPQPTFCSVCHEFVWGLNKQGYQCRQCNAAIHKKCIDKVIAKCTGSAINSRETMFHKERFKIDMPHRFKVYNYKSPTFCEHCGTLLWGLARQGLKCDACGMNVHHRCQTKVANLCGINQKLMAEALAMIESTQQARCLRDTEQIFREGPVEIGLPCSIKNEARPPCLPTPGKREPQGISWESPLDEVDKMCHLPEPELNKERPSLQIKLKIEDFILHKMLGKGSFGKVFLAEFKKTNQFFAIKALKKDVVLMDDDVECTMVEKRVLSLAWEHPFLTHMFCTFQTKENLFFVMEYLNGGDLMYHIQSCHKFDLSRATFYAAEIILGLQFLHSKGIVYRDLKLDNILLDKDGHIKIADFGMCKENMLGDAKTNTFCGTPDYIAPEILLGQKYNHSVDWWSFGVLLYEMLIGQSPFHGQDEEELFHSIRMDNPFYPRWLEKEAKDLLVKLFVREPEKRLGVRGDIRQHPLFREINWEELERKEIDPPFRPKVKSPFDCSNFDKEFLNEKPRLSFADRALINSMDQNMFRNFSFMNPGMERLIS

JVM-2 = assay: Antiproliferative activity against human JVM-2 cells assessed as inhibition of cell viability incubated for 3 to 5 days by Celltiter-Glo luminescent assay; type: functional, cell-based
ULA = assay: Antiproliferative activity against human ULA cells assessed as inhibition of cell viability incubated for 3 to 5 days by Celltiter-Glo luminescent assay; type: functional, cell-based
MeWo = assay: Antiproliferative activity against human MeWo cells assessed as inhibition of cell viability incubated for 3 to 5 days by Celltiter-Glo luminescent assay; type: functional, cell-based
WM 266-4 = assay: Antiproliferative activity against human WM266-4 cells assessed as inhibition of cell viability incubated for 3 to 5 days by Celltiter-Glo luminescent assay; type: functional, cell-based
HT-144 = assay: Antiproliferative activity against human HT-144 cells assessed as inhibition of cell viability incubated for 3 to 5 days by Celltiter-Glo luminescent assay; type: functional, cell-based
[11] = molecular target: Cyclin-dependent kinase 11B (Homo sapiens, UniProt P21127); assay: Inhibition of CDK11 (unknown origin)
Sequence of Cyclin-dependent kinase 11B (P21127 whole entry): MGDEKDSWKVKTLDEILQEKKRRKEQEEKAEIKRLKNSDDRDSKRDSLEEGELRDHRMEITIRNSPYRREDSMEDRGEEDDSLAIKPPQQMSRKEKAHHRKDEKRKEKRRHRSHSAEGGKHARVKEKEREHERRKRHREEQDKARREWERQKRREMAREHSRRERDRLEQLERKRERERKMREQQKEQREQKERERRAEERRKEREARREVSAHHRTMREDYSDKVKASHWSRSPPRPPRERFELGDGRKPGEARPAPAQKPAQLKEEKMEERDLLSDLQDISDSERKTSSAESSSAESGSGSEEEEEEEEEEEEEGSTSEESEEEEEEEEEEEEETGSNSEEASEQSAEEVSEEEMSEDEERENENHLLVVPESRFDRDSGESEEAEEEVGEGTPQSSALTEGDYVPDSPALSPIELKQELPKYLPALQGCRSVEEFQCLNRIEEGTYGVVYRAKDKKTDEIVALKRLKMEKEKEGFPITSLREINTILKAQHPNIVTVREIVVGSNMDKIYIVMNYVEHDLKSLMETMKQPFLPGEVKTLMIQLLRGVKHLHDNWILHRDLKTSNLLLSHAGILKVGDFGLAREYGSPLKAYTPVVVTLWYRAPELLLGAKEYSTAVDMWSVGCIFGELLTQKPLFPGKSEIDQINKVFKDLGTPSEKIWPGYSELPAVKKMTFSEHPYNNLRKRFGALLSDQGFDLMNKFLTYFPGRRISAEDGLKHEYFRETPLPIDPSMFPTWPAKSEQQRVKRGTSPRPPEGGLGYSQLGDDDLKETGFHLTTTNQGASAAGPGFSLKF

DU-145 = assay: Antiproliferative activity against human DU-145 cells assessed as inhibition of cell viability incubated for 3 to 5 days by Celltiter-Glo luminescent assay; type: functional, cell-based
MM1.S = assay: Antiproliferative activity against human MM1.S cells assessed as inhibition of cell viability incubated for 3 to 5 days by Celltiter-Glo luminescent assay; type: functional, cell-based
NCI-H441 = assay: Antiproliferative activity against human NCI-H441 cells assessed as inhibition of cell viability incubated for 3 to 5 days by Celltiter-Glo luminescent assay; type: functional, cell-based
[12] = molecular target: Mitogen-activated protein kinase 8 (Homo sapiens, UniProt P45983); assay: Inhibition of JNK1 (unknown origin)
Sequence of Mitogen-activated protein kinase 8 (P45983 whole entry): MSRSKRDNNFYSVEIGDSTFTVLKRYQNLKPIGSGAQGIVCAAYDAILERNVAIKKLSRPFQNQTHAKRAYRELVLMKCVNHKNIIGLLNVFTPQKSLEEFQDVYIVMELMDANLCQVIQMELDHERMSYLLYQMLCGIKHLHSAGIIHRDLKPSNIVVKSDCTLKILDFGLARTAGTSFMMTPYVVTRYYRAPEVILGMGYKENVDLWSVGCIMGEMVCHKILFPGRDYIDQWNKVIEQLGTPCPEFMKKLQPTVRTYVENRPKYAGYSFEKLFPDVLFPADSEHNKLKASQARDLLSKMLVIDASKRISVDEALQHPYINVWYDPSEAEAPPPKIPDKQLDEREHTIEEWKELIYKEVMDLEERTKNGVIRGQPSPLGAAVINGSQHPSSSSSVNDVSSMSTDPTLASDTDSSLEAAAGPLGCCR

Question: Which EC50 (Malme-3M) does the source give for CNC(=O)Nc1ccc2c(c1)CC[C@@]21OC(=O)N(CC(=O)N(Cc2ccc(F)cc2)[C@@H](C)C(F)(F)F)C1=O [A-485] here?
Answer: 2690 nM

Question: What about the TGI [1] of the same molecule?
Answer: 54%

Question: What about the EC50 (Ramos) of the same molecule?
Answer: 930 nM

Question: And the Kp at 24 h (in vivo)?
Answer: 0.03

Question: And the IC50 [2]?
Answer: > 10 µM

Question: What about the EC50 (SK-MEL-2) of the same molecule?
Answer: > 10 µM

Question: What about the EC50 (RL) of the same molecule?
Answer: 1050 nM

Question: What about the EC50 (DB) of the same molecule?
Answer: 770 nM

Question: What about the EC50 (NCI-H1930) of the same molecule?
Answer: > 10 µM

Question: What about the EC50 (COR-L47) of the same molecule?
Answer: > 10 µM

Question: What about the EC50 (SU-DHL-6) of the same molecule?
Answer: 750 nM

Question: And the IC50 [3]?
Answer: > 10 µM

Question: And the EC50 (NCI-H1693)?
Answer: 2370 nM

Question: What about the EC50 (G-361) of the same molecule?
Answer: 3.77 µM

Question: What about the IC50 [4] of the same molecule?
Answer: > 10 µM

Question: And the T1/2 [5]?
Answer: 8.85 min

Question: And the IC50 [6]?
Answer: > 10 µM

Question: What about the Cmax [7] of the same molecule?
Answer: 242 µg/mL

Question: And the EC50 (OPM-2)?
Answer: 620 nM

Question: And the IC50 [8]?
Answer: > 10 µM

Question: And the EC50 (MDA-MB-436)?
Answer: > 10 µM

Question: What about the IC50 (Aurora kinase B) of the same molecule?
Answer: > 10 µM

Question: What about the EC50 (NCI-H838) of the same molecule?
Answer: 6.99 µM

Question: What about the EC50 (NCI-H596) of the same molecule?
Answer: > 10 µM

Question: What about the EC50 (RCK8) of the same molecule?
Answer: 590 nM

Question: And the EC50 (MDA-MB-468)?
Answer: 380 nM

Question: What about the IC50 [9] of the same molecule?
Answer: > 10 µM

Question: What about the EC50 (HCC70) of the same molecule?
Answer: > 10 µM

Question: And the EC50 (GA-10)?
Answer: 1060 nM

Question: And the IC50 [10]?
Answer: > 10 µM

Question: What about the EC50 (JVM-2) of the same molecule?
Answer: > 10 µM

Question: What about the EC50 (ULA) of the same molecule?
Answer: 550 nM

Question: What about the EC50 (MeWo) of the same molecule?
Answer: 2430 nM

Question: And the EC50 (WM 266-4)?
Answer: 1910 nM

Question: What about the EC50 (HT-144) of the same molecule?
Answer: 3.08 µM

Question: What about the IC50 [11] of the same molecule?
Answer: > 10 µM

Question: And the EC50 (DU-145)?
Answer: > 10 µM

Question: And the EC50 (MM1.S)?
Answer: 180 nM

Question: And the EC50 (NCI-H441)?
Answer: > 10 µM

Question: What about the IC50 [12] of the same molecule?
Answer: > 10 µM
